# Paper PMC7984827, “A high-content AlphaScreen™ identifies E6-specific small molecule inhibitors as potential therapeutics for HPV^+ head and neck squamous cell carcinomas” (Oncotarget, 2021)
# Read-outs that look alike come from different tables or passages of the source.
# Key:
# [1] = system: HPV+ HNSCC cell line SCC104; experiment: MTT cell viability assay of analogs in SCC104; type: cell-based; conditions: SCC104, 24 hr; for activity / potency in cell-based MTT assay (in words): Figure 6B
# Text: (§1) Using the SciFinder and Zinc15 databases, we searched and identified several gambogic acid structural analogs. A subset of these analogues was commercially available and we purchased 8. The 8 analogs were obtained as follow: gambogenic amide (Enzo Life Sciences), gambogenic acid (Selleckchem), morellic acid (Aobious), 30-hydroxy gambogic acid (Quality Phytochemicals, LLC), acetyl gambogic acid (Microsource), and gambogin, neogambogic acid and isomorellinol (MolPort Natural Products). Additional gambogic acid was purchased from Tocris. The interactions of the analogues with E6-caspase 8 was tested using AlphaScreen™ technology using the same protocol as with the primary screen, and were compared to the parent compound. The effect on cell viability was also similarly done in HPV^+ and HPV^- cell lines via the MTT assay (see below) and potency was determined using GraphPad IC50 curve fitting.
# (§2) All working concentrations were diluted in PBS to the desired concentration before use. To test the effect of gambogic acid and/or its derivatives on cell viability, all cell lines were seeded at 2 × 10^4 per well in 96-well plates and allowed to adhere overnight. Various concentrations of the analogues were added and the cells incubated at 37°C for 24 hr. Viability was then measured using the MTT assay, performed as described previously. All experiments were repeated at least three times (three biological replicates, carried out on different days). Data presented are from a representative experiment. Cell viability and potency were assessed from % inhibition relative to the vehicle control, and IC50 dose curves were generated using GraphPad Prism.
# E6-Caspase 8 binding = target: T1, E6-Caspase 8 binding (Human papillomavirus type 16, UniProt P03126); experiment: biochemical; set-up: species or system HPV E6, human Caspase 8; conditions: for activity against E6-caspase 8 binding, deviation from the parent compound (less active): relative to gambogic acid; for inhibitory activity against E6-caspase 8 binding relative to GA (in words): SAR of analogs, Figure 6A
# T1 construct: made in house; host or cells: E. coli
# Experimental: The compounds were diluted to a working concentration in DMSO and screened at a single-point final concentration of 10 μM with no replicates. Briefly, 75 nL of each compound was transferred and added to wells of the destination 384-well plate using the Echo dispenser to 4 μL of blocking solution. 4 μL of 800 nM GST-E6 and 4 μL of His6-Caspase 8 were added and pre-incubated at room temperature for 60 minutes. 8 μL of the donor and acceptor bead mixture (final concentration of 20 μg/ml) was then added. The plates were sealed and incubated for 4 hours at room temperature before the plates were read using the EnvisionTM Multi-Label plate reader (Perkin Elmer Inc.). […] A 10-point serial dilution of these compounds was done for dose-dependency reconfirmation. Dose response inhibition curves were constructed and IC50 calculated using GraphPad Prism using four parameter non-linear regression analysis.
# The first counter-screen assay was based using the GST-His6 fusion peptide as the E6-binding partner instead of GST-E6-His6-Caspase 8. Hit candidate compounds from the primary screen were prepared using a 6-point serial dilution. Using an Echo dispenser, compounds were transferred to plates containing 4 μL of blocking buffer. 8 μL of 5 nM GST-His6 peptide substrate was then added. The mixture was pre-incubated at room temperature for 60 minutes. Glutathione donor and nickel chelate acceptor beads (final concentration 20 μg/mL) were added and incubated for another 60 minutes at room temperature. Dose-dependency of the compounds using GST-E6-His6-Caspase 8 was performed in parallel using the same protocol as in the primary screen. The signals were then read using the Envision™ plate reader.
# as §1
# E6-E6AP binding = target: T2, E6-E6AP binding (Human papillomavirus type 16, UniProt P03126); experiment: biochemical; set-up: species or system HPV E6
# T2 construct: made in house; host or cells: E. coli
# Text: Compounds that passed the two counter-screens were subjected to cheminformatic analysis as an additional filter for recognition and exclusion of compounds with problematic substructures. These substructures contain functional groups that may disrupt binding in many unrelated biochemical assays in a non-specific manner. Specifically, from the names and SMILES of the hit compounds we queried the following databases to find hits with pan assay interference (PAINS) patterns: Zinc15, SwissADME, FAFdrugs4 and PAINS-Remover. Compounds that made it onto the consensus list as having no PAINS patterns after filtering with these online tools were then selected. We then cross-validated the selected compound(s) with a related but different primary screen assay. Specifically, we replaced the caspase 8 used in the primary screen with E6AP and evaluated the inhibitory activity against E6 binding to E6AP (E6-E6AP) using the same steps as in the AlphaScreen™ protocol described above.
# [2] = set-up: method as in PMID 18384990, PMID 29077076; conditions: toxicities to organs only at high concentrations; cited from earlier work
# SCC104 (HPV+) = experiment: Colony formation assay, SCC104; type: cell-based; conditions: 24 hours treatment then seeded
# Experimental: (§3) Sub-confluent monolayer cells were treated with different doses of GA-OH for 24 hours. Cells were trypsinized and re-suspended before re-plating into 6 well plates in DMEM or MEM at 500–1000 cell densities, depending on the cell line. Cells were then allowed to grow for 10–20 days, depending on the cell line, before fixing and staining. A mixture of methanol/acetic acid was used for fixing, followed by 0.5% crystal violet staining. Plates were imaged using UV imager, and colonies with more than […] counted using image J. Surviving fractions were determined by dividing the number of colonies by the number of cells seeded as a product of the corresponding plating efficiency. Survival fractions curves were plotted using GraphPad Prism.
# SCC19 (HPV-) = experiment: Colony formation assay, SCC19; type: cell-based; conditions: 24 hours treatment then seeded
# Experimental: as §3
# [3] = system: Caspase 3/7 activity in SCC090, SCC104, SiHa; experiment: Caspase 3/7 Glo activity assay, HPV+ cell lines; type: cell-based; conditions: 0.75 μM, 24 hr
# Experimental: (§4) Cells were seeded into white walled 96-well plates at 2 × 10^4 cells per well in 100 μL media and incubated overnight. GA-OH (0.75 μM) and vehicle were then added and incubated at 37°C for 24 hr. Caspase 3/7 activity was measured using the Caspase 3/7 Glo kit (Promega, Fitchburg, WI, USA) following the manufacturer's instructions. Briefly, room temperature-equilibrated Caspase-Glo reagent was added (Promega) to each well. The plate was mixed by placing it on an orbital shaker and incubated for 30 secs at room temperature, then incubated at room temperature. After a 2-hr incubation, luminescence was measured using a plate-reading fluorimeter (Flx800, Bio-Tek Instrument Co., Winooski, VT, USA). Background activity (blank reaction) was subtracted from all experimental wells. Percent activity of caspase 3/7 in wells treated with GA was then expressed relative to vehicle treated wells.
# [4] = system: HPV+ (SCC47, SCC090, SCC104, SCC152) and HPV- (SCC19, SCC29, SCC49, SCC84) HNSCC cell lines; experiment: MTT cell viability, HNSCC cell line panel; type: cell-based; conditions: 24 hr, Figure 7A
# Experimental: as §2
# [5] = system: Caspase 3/7 activity in SCC19, SCC84; experiment: Caspase 3/7 Glo activity assay, HPV- cell lines; type: cell-based; conditions: 0.75 μM, 24 hr
# Experimental: as §4
# [6] = system: p53, p21, caspase 8 in SCC90 and SCC104 cells; experiment: Western blotting of p53, p21 and caspase 8 in HPV+ cells; type: cell-based; conditions: 24 hours
# Experimental: Adherent cells were washed with ice cold PBS. Cell lysis buffer containing protease inhibitor cocktail was added and cells were scraped off into a tube on ice. The cells were incubated on ice for 10 minutes. Cell lysates were separated by SDS-PAGE and electrophoretically transferred to PVDF membranes. Following blocking, antibodies directed against caspase 8, p53, cleaved PARP, cleaved caspase 3, p21, and β-actin (Cell signaling) were applied at 1:5000 dilution. Anti-mouse and anti-rabbit secondary antibodies were then employed (LI-COR Biosciences, Lincoln, NE, USA). Signals were measured using the Odyssey Infrared Imaging system (LI-COR Biosciences) and quantified using Image J.
# T1 sequence (P03126 whole entry): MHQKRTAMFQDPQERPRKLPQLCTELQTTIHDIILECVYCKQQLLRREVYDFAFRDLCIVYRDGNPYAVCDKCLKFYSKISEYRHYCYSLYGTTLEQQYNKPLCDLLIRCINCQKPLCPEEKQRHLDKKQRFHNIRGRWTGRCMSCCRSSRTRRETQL
# T2 sequence (P03126 whole entry): as above
structure (smiles),measurement,setting,value
"CC(C)=CCCC1(C)C=Cc2c(O)c3c(c(CC=C(C)C)c2O1)O[C@]12C(=CC4C[C@H]1C(C)(C)OC2(CC=C(C)C)C4=O)C3=O (stereo partly drawn) [analog #6, gambogin]","rank of highest IC50 relative to the parent compound, MTT",[1],first
same,"activity against E6-caspase 8 binding, deviation from the parent compound (less active)",E6-Caspase 8 binding,> 3 logs
"CC(C)=CCCC1(C)CC(O)c2c(O)c3c(c(CC=C(C)C)c2O1)OC12C(=CC4CC1C(C)(C)OC2(C/C=C(\C)C(=O)O)C4=O)C3=O (stereo not drawn) [analog #5, neo-gambogic acid]","rank of highest IC50 relative to the parent compound, MTT",[1],fourth
same,"activity against E6-caspase 8 binding, deviation from the parent compound (less active)",E6-Caspase 8 binding,> 3 logs
"O=c1c(O)c(-c2cc(O)c(O)c(O)c2)oc2cc(O)cc(O)c12 [myricetin, reference compound]",IC50,E6-E6AP binding,5600 nM
same,IC50,E6-Caspase 8 binding; IC50 against E6-Caspase 8,4600 nM
"CC(=O)Oc1c2c(c(CC=C(C)C)c3c1C(=O)C1=C[C@@H]4CC5C(C)(C)OC(C/C=C(\C)C(=O)O)(C4=O)[C@@]15O3)OC(C)(CCC=C(C)C)C=C2 (stereo partly drawn) [analog #8, acetyl iso-gambogic acid]",activity / potency in cell-based MTT assay (in words),[1],diminished activity
same,inhibitory activity against E6-caspase 8 binding relative to GA (in words),E6-Caspase 8 binding,did not significantly affect the activity
CC(C)=CCC[C@]1(C)C=Cc2c(O)c3c(c(CC=C(C)C)c2O1)O[C@]12C(=C[C@@H]4C[C@H]1C(C)(C)O[C@@]2(C/C=C(/C)C(=O)O)C4=O)C3=O [gambogic acid],IC50,E6-E6AP binding,1700 nM
same,tolerability in animal studies,[2],relatively tolerable
same,IC50,"E6-Caspase 8 binding; 11 compounds that passed counter-screening (Supplementary Table 3), read-out: IC50 against E6-Caspase 8 binding",2000 nM
same,IC50,"E6-Caspase 8 binding; head-to-head comparison gambogic acid vs myricetin (Figure 4A), read-out: IC50 against E6-Caspase 8",1900 nM
"CC(C)=CCc1c2c(c(O)c3c1O[C@]14C(=C[C@@H]5C[C@H]1C(C)(C)O[C@@]4(C/C=C(/C)C(=O)O)C5=O)C3=O)C=CC(C)(C)O2 [analog #2, morellic acid]",inhibitory activity against E6-caspase 8 binding relative to GA (in words),E6-Caspase 8 binding,did not significantly affect the activity
"CC(C)=CCC[C@]1(C)C=Cc2c(O)c3c(c(CC=C(C)C)c2O1)O[C@]12C(=C[C@@H]4CC1C(C)(C)O[C@@]2(C/C=C(/C)C(N)=O)C4=O)C3=O [analog #4, gambogic amide]",inhibitory activity against E6-caspase 8 binding relative to GA (in words),E6-Caspase 8 binding,did not significantly affect the activity
"CC(C)=CCCC1(C)C=Cc2c(O)c3c(c(CC=C(C)C)c2O1)OC12C(=CC4CC1C(C)(C)OC2(CC=C(CO)C(=O)O)C4=O)C3=O (stereo not drawn) [GA-OH, 30-hydroxygambogic acid]",number of colonies,SCC104 (HPV+),significantly and dose-dependently reduced
same,number of colonies,SCC19 (HPV-),did not exhibit significant reduction relative to their control except at high concentrations
same,apoptosis induction (Caspase 3/7 activity),[3],Significant apoptosis induction
same,"sensitivity of HPV+ versus HPV- HNSCC cell lines, MTT cell viability",[4],higher sensitivity
same,activity / potency in cell-based MTT assay (in words),[1],highest potency of all analogs
same,apoptosis activity (Caspase 3/7 activity),[5],little to no apoptosis activity
same,inhibitory activity against E6-caspase 8 binding relative to GA (in words),E6-Caspase 8 binding,more effectively inhibited E6 binding to caspase 8 than any of the other analogs or the parent compound
same,caspase 8 cleavage by western blot,"[6]; HPV+ cells, 0.5 μM and 1 μM",cleavage of caspase 8 in a dose-dependent manner
same,p53 level by immunoblotting,"[6]; SCC90 and SCC104, 0.5 μM and 1 μM",increase of p53
same,p21 level by immunoblotting,"[6]; compared to vehicle control, 0.5 μM and 1 μM",robust induction
"CC(C)=CCC/C(C)=C/Cc1c(O)c(CC=C(C)C)c2c(c1O)C(=O)C1=C[C@@H]3C[C@H]4C(C)(C)O[C@@](C/C=C(/C)C(=O)O)(C3=O)[C@@]14O2 [analog #3, gambogenic acid]","rank of highest IC50 relative to the parent compound, MTT",[1],third
same,"activity against E6-caspase 8 binding, deviation from the parent compound (less active)",E6-Caspase 8 binding,> 3 logs
"CC(C)=CCc1c2c(c(O)c3c1OC14C(=CC5CC1C(C)(C)OC4(C/C=C(\C)CO)C5=O)C3=O)C=CC(C)(C)O2 (stereo not drawn) [analog #7, iso morellinol]",inhibitory activity against E6-caspase 8 binding relative to GA (in words),E6-Caspase 8 binding,did not significantly affect the activity
